From ChEMBL document CHEMBL6074685, “Design, synthesis and biological evaluation of novel diaryl-substituted fused nitrogen heterocycles as tubulin polymerization inhibitors to overcome multidrug resistance in vitro and in vivo” (Eur J Med Chem, 2025)
The source made the active and inactive calls. The rule behind the calls is not given here.

Tests used:
A549/TR [1] = assay: Antiproliferative activity against human A549/T cell assessed as cell growth inhibition incubated for 48 hrs by MTT assay; type: functional, cell-based
A549 = assay: Antiproliferative activity against human A549 cells assessed as cell growth inhibition incubated for 48 hrs by MTT assay; settings: A549, 48 h
[2] = Resistance index, ratio of IC50 for human A549/T cells to IC50 for human A549 cells; type: functional
A549/TR [3] = assay: Antiproliferative activity against human A549/T cell assessed as cell growth inhibition in presence of verapamil incubated for 48 hrs by MTT assay; type: functional, cell-based
[4] = Metabolic stability in human liver microsome assessed as half life measured upto 50 mins by LC-MS/MS analysis; type: ADME; settings: liver microsomes
[5] = Metabolic stability in human liver microsome assessed as intrinsic clearance measured upto 50 mins by LC-MS/MS analysis; type: ADME; settings: liver microsomes, read-out: CLH
[6] = Metabolic stability in mouse liver microsome assessed as half life measured upto 50 mins by LC-MS/MS analysis; type: ADME; settings: liver microsomes
[7] = Metabolic stability in mouse liver microsome assessed as intrinsic clearance measured upto 50 mins by LC-MS/MS analysis; type: ADME; settings: liver microsomes, read-out: CLH

Row | Compound | IC50 (A549/TR [1]) [µM] | IC50 (A549) [µM] | Ratio IC50 [2] | other results
1 | COc1ccc(-c2cc(-c3cc(OC)c(OC)c(OC)c3)c3cc[nH]c3c2)cc1F | 15.8 | 4.82 | 3.29 | 
2 | CC(=O)O[C@@]12CO[C@@H]1C[C@H](O)[C@@]1(C)C(=O)[C@H](O)C3=C(C)[C@@H](OC(=O)[C@H](O)[C@@H](NC(=O)OC(C)(C)C)c4ccccc4)C[C@@](O)([C@@H](OC(=O)c4ccccc4)[C@H]21)C3(C)C [DOCETAXEL ANHYDROUS] | 7.84 | 0.001 | 7840 | Activity (A549/TR [3]): Active
3 | COc1ccc(-c2nc3c(c(Nc4cc(OC)c(OC)c(OC)c4)n2)CCC3)cc1F | 35.5 | 23 | 1.54 | 
4 | COc1ccc(-c2cc(-c3cc(OC)c(OC)c(OC)c3)c3nc(C)[nH]c3c2)cc1O | 1.9 | 0.53 | 3.58 | 
5 | COc1ccc(-c2cc(-c3ccccc3OC)c3nc[nH]c3c2)cc1N | 0.35 | 0.14 | 2.5 | 
6 | COc1cc(-c2cc(C)cc3[nH]cnc23)cc(OC)c1OC | > 50 | > 50 |  | 
7 | COc1cc(-c2cc(-c3ccc(C)c(F)c3)cc3[nH]cnc23)cc(OC)c1OC | 0.38 | 0.11 | 3.45 | 
8 | COc1ccc(-c2cc(-c3cc(OC)c(OC)c(OC)c3)c3nc(C)[nH]c3c2)cc1F | 10.2 | 5.37 | 1.9 | 
9 | COc1ccc(-c2cc3[nH]c(=O)[nH]c3c(Oc3cc(OC)c(OC)c(OC)c3)n2)cc1F | 22.1 |  |  | 
10 | COc1ccc(-c2nc(Nc3cc(OC)c(OC)c(OC)c3)c3ccccc3n2)cc1F | > 50 | 10.3 | >4.84 | 
11 | COc1cc(-c2cc(-c3ccc(C)c(O)c3)cc3[nH]cnc23)cc(OC)c1OC | 0.89 | 0.19 | 4.68 | 
12 | COc1ccc(-c2cc(-c3cc(OC)c(OC)c(OC)c3)c3nc[nH]c3c2)cc1N | 0.16 | 0.033 | 4.84 | 
13 | COc1ccc(-c2cc3c([nH]c(=O)n3-c3cc(OC)c(OC)c(OC)c3)c(C(N)=O)n2)cc1O | 33.8 |  |  | 
14 | COc1ccc(-c2cc(Oc3cc(OC)c(OC)c(OC)c3)c3nc[nH]c3c2)cc1F | 10.2 | 5.13 | 1.99 | 
15 | COc1ccc(-c2nc(Nc3cc(OC)c(OC)c(OC)c3)c3cccnc3n2)cc1F | > 50 | 5.36 | >9.43 | 
16 | COc1cc(-c2cc(Cl)cc3[nH]cnc23)cc(OC)c1OC | > 50 | > 50 |  | 
17 | COc1ccc(-c2nc3c(c(Nc4cc(OC)c(OC)c(OC)c4)n2)SCC3)cc1F | > 50 | > 50 |  | 
18 | COc1ccc2nc(-c3ccc(OC)c(F)c3)nc(Nc3cc(OC)c(OC)c(OC)c3)c2c1 | 8.91 | 2.04 | 4.37 | 
19 | COc1ccc(-n2c(=O)[nH]c3cnc(-c4cc(OC)c(OC)c(OC)c4)cc32)cc1O | > 50 |  |  | 
20 | COc1cc(-c2cc(-c3ccc(C4CC4)cc3)cc3[nH]cnc23)cc(OC)c1OC | 6.76 | 4.92 | 1.34 | 
21 | COc1ccc(Nc2nc(Nc3cc(OC)c(OC)c(OC)c3)c3ccccc3n2)cc1F | 11 | 2.77 | 3.96 | 
22 | CC[C@]1(O)C[C@H]2CN(CCc3c([nH]c4ccccc34)[C@@](C(=O)OC)(c3cc4c(cc3OC)N(C=O)[C@H]3[C@@](O)(C(=O)OC)[C@H](OC(C)=O)[C@]5(CC)C=CCN6CC[C@]43[C@@H]65)C2)C1 [VINCRISTINE] | 4.35 | 0.021 | 207 | 
23 | COc1cc(-c2cc(Br)cc3[nH]cnc23)cc(OC)c1OC | 37.1 | 28.9 | 1.28 | 
24 | COc1ccc(-c2cc(-c3cc(OC)c(OC)c(OC)c3)c3nc[nH]c3c2)cc1O | 0.24 | 0.059 | 4.06 | 

Row | Compound | IC50 (A549/TR [1]) [µM] | IC50 (A549) [µM] | Ratio IC50 [2] | other results
25 | COc1ccc(-c2cc(-c3ccc(OC)c(N)c3)cc3[nH]cnc23)cc1 | 16.6 | 11 | 1.5 | 
26 | COc1cc2c(c(OC)c1OC)-c1ccc(OC)c(=O)cc1[C@@H](NC(C)=O)CC2 [COLCHICINE] | 0.28 | 0.022 | 12 | Activity (A549/TR [3]): Active
27 | CCC1=C[C@@H]2CN(C1)Cc1c([nH]c3ccccc13)[C@@](C(=O)OC)(c1cc3c(cc1OC)N(C)[C@H]1[C@@](O)(C(=O)OC)[C@H](OC(C)=O)[C@]4(CC)C=CCN5CC[C@]31[C@@H]54)C2 |  |  |  | Activity (A549/TR [3]): Active
28 | COc1ccc(-c2cncc3[nH]c(=O)n(Cc4cc(OC)c(OC)c(OC)c4)c23)cc1O | > 50 |  |  | 
29 | COc1cc(-c2cc(-c3ccc(C)cc3)cc3[nH]cnc23)cc(OC)c1OC | 0.97 | 0.68 | 1.42 | 
30 | COc1ccc(-c2cc(-c3cc(OC)c(OC)c(OC)c3)c3[nH]c(=O)[nH]c3c2)cc1O | 0.47 | 0.29 | 1.62 | 
31 | COc1ccc(-c2cc(-c3cc(OC)c(OC)c(OC)c3)c3nc[nH]c3c2)cn1 | 0.39 | 0.29 | 1.34 | 
32 | COc1ccc(-c2nc(N(C)c3cc(OC)c(OC)c(OC)c3)c3ncn(C)c3n2)cc1F | 16.6 | 9.91 | 1.67 | 
33 | COc1cc(-c2cccc3[nH]cnc23)cc(OC)c1OC | > 50 | > 50 |  | 
34 | COc1ccc(-c2cc(-c3cc(OC)c(OC)c(OC)c3)c3[nH]c(=O)[nH]c3c2)cc1F | 3.02 | 1.27 | 2.37 | 
35 | COc1ccc(-c2cc(-c3cc(OC)c(OC)c(OC)c3)c3nc[nH]c3c2)cc1F | 0.3 | 0.11 | 2.73 | 
36 | COc1ccc(-c2nc3cnccc3n2-c2cc(OC)c(OC)c(OC)c2)cc1O | > 50 |  |  | 
37 | COc1ccc(-c2cncc3[nH]c(=O)n(-c4cc(OC)c(OC)c(OC)c4)c23)cc1O | > 50 |  |  | 
38 | COc1ccc(-c2nc(Nc3cc(OC)c(OC)c(OC)c3)c3cc(OC)c(OC)cc3n2)cc1F | > 50 | > 50 |  | 
39 | COc1ccc(-c2cc(Oc3cc(OC)c(OC)c(OC)c3)c3ncn(C)c3c2)cc1F | 0.41 | 0.2 | 2.05 | 
40 | COc1ccc(-c2cncc3[nH]c(=O)n(-c4cc(OC)c(OC)c(OC)c4)c23)cc1F | > 50 |  |  | 
41 | COc1cc(-c2cc(-c3ccc(C)c(N)c3)cc3[nH]cnc23)cc(OC)c1OC | 0.5 | 0.24 | 2.08 | 
42 | CCOc1ccc(-c2cc(-c3cc(OC)c(OC)c(OC)c3)c3nc[nH]c3c2)cc1 | 2.95 | 1.03 | 2.86 | 
43 | O=C(c1ccc(F)cc1)C1CCN(CCn2c(=O)[nH]c3ccccc3c2=O)CC1 [KETANSERIN] |  |  |  | half-life [4]: 37 min; CLint scaled [5]: 47 mL/min/kg; half-life [6]: 13 min; CLint scaled [7]: 419 mL/min/kg
44 | COc1ccc(-c2cc(-c3cc(OC)c(OC)c(OC)c3)c3nc[nH]c3c2)cc1CO | 1.58 | 0.47 | 3.36 | 
45 | COc1ccc(-c2cc(-c3cc(OC)c(OC)c(OC)c3)c3nc[nH]c3c2)cc1 | 1.51 | 0.78 | 1.94 | 
46 | COc1ccc(-c2nc(Nc3cc(OC)c(OC)c(OC)c3)c3ncn(C)c3n2)cc1F | 3.91 | 1.21 | 3.23 | 
47 | COc1cc(-c2cc(-c3ccc(Cl)c(N)c3)cc3[nH]cnc23)cc(OC)c1OC | 0.91 | 0.41 | 2.21 | 
48 | COc1ccc(-c2nc3c(c(Nc4cc(OC)c(OC)c(OC)c4)n2)CCCC3)cc1F | 11.7 | 10.4 | 1.12 | 
